Columns and labels:
[1] = Solubility comparison of the fumarate salt and free base in water; assay type: physicochemical; conditions: thermodynamic from solid; pure water, stirred overnight, filtered, HPLC
From the text: Test sample: compound represented by formula (II) (free base) prepared by comparative experiment 2 and product prepared by embodiment 1 (compound represented by formula (I));
The tested sample was weighted and added into pure water, then stirred by a magnetic stirrer overnight, and then filtered and diluted to a certain volume for sample injection;
HPLC chromatographic conditions: acetonitrile-0.1% aqueous trifluoroacetic acid (50:50) used as mobile phase, detection wavelength 264 nm, injection volume 10 μL, flow rate 1.0 mL/min.

[2] = Stability investigation of crystal form I (XRPD, long-term placement); assay type: physicochemical; conditions: long-term 25° C., 60% RH, dark, sealed, sampling time 5 days
Experimental: The crystal form I sample prepared by embodiment 2 was placed in the dark, sealed and placed flat, and the stability of the sample was investigated long-term (25° C., 60% RH), sampling time was 5 days, and XRPD was used to detect whether the crystal form changed.

Structure (SMILES): CCO[C@H]1CC[C@H](NCC[C@@]2(c3ccccn3)CCOC3(CCCC3)C2)c2ccccc21.O=C(O)/C=C/C(=O)O [Compound represented by formula (I), (1S,4S)-4-ethoxy-N-(2-((R)-9-(pyridin-2-yl)-6-oxaspiro[4.5]deca-9-yl)ethyl)-1,2,3,4-tetrahydronaphthalen-1-amine fumarate salt]
- solubility [1]: 31.3 mg/mL
- XRPD peak pattern (crystal form change) [2]: remained unchanged

Structure (SMILES): CCO[C@H]1CC[C@H](NCC[C@@]2(c3ccccn3)CCOC3(CCCC3)C2)c2ccccc21 [Free base, (1S,4S)-4-ethoxy-N-(2-((R)-9-(pyridin-2-yl)-6-oxaspiro[4.5]deca-9-yl)ethyl)-1,2,3,4-tetrahydronaphthalen-1-amine]
- solubility [1]: 0.0022 mg/mL
